Patent US20110053907A1, “SUBSTITUTED PYRIMIDINES AND TRIAZINES AND THEIR USE IN CANCER THERAPY” (Auckland UniServices Limited, priority 2008, published 2011)

Legend:
PI3K isoforms = conditions: literature; cited from earlier work
p110α/p85 = p110α/p85 (Homo sapiens, UniProt P42336); test: Reversible inhibition of isolated enzyme, lipid kinase assay; format: biochemical; conditions: recombinant enzyme, 100 μM ATP, 1 hr, average of two experiments
Method: Compounds were evaluated for their ability to inhibit Class I PI 3-kinase enzymes p110δ/p85, p110α/p85, and p110β/p85. Reaction mixtures comprising 0.1 μg of a recombinant enzyme, 10 μg of L-α-phosphatidylinositol, and 2× Lipid Kinase Buffer (40 mM Tris-HCl, pH 7.4, 200 mM NaCl, 1 mM EDTA), which contains either DMSO only as a control or the test compound in DMSO (the final DMSO concentration is 1%), were activated by the addition of an ATP mix (5 mM MgCl2, 100 μM ATP, and 0.1 μL [γ^33P]ATP). Reactions were incubated at room temperature for 1 hr, and then stopped by the addition of 1M HCl. The lipids were then extracted using a two step procedure. Firstly, 200 μL of chloroform/methanol (1:1) was added, the biphasic reactions mixed and centrifuged briefly, and the inorganic phase was removed and discarded. Following this, 80 μL of methanol:HCl (1:1) was added and the same procedure followed. The organic phase (70 μL) was then transferred to a clean 1.6 mL tube and the reactions were dried using a Speedvac, with no heating, for 30 min. The reactions were spotted onto TLC plates (Merck Ltd) and developed for 1 hr in propanol-1:2 M acetic acid (13:7). The TLC plates were then dried at room temperature and quantified using a phosphorimager (StormImager, Amersham). Nine compound concentrations were used for each test compound to determine its IC50 value. Each experiment was performed twice and the average IC50 value is used herein.

Sequence of p110α/p85 (P42336 whole entry): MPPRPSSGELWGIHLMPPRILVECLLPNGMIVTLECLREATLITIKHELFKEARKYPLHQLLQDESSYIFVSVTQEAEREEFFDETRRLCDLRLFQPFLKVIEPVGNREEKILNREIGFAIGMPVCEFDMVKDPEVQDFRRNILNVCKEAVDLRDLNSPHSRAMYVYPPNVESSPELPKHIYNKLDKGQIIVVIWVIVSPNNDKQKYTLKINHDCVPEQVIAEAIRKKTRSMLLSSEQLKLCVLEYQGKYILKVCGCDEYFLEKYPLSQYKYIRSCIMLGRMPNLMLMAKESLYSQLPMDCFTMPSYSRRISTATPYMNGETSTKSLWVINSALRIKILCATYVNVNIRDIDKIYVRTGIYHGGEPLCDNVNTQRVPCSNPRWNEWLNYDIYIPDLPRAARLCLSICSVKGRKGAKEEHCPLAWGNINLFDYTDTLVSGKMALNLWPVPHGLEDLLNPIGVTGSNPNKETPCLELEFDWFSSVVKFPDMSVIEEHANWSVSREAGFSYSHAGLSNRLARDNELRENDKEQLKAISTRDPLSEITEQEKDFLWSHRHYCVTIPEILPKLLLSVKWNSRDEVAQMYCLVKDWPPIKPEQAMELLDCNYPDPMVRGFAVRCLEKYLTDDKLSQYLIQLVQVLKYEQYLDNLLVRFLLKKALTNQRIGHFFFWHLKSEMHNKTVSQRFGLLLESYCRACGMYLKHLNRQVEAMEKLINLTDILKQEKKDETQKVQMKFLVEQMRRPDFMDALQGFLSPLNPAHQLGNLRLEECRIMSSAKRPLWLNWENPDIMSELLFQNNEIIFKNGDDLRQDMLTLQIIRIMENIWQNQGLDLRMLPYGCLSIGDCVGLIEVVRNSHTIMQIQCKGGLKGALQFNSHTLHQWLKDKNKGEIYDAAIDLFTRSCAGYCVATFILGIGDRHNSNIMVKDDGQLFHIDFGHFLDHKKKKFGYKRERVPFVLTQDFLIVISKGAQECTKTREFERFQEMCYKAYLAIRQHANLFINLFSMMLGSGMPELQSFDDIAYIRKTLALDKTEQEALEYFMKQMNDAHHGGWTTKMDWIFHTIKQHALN
Sequence of p110α/p85 (P27986 whole entry partner): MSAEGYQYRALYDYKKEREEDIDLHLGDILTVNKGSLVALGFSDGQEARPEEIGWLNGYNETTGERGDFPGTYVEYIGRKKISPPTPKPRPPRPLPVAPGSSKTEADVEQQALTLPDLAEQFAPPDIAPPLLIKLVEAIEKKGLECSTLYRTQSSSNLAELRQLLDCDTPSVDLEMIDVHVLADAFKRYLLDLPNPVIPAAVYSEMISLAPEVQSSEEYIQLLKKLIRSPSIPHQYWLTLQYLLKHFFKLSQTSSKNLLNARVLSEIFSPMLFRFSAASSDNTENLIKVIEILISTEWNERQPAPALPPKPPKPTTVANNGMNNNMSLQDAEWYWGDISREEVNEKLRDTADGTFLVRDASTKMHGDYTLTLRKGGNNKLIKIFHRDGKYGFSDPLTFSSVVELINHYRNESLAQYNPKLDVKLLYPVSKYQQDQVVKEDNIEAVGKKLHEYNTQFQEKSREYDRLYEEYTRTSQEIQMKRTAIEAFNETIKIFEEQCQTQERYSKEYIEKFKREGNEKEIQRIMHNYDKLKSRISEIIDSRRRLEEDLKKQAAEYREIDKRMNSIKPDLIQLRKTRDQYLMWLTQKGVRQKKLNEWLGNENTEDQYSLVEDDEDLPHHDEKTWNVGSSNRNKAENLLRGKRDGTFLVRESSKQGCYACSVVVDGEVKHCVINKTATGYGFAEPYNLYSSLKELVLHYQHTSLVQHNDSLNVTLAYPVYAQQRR

Row | IC50 (p110α/p85) [nM] | melting point [°C] | Structure (SMILES) | PI3K isoform selectivity (PI3K isoforms) | mode of PI3K inhibition (reversible / irreversible) (PI3K isoforms)
1 | – | – | O=C1NC(=O)/C(=C\c2ccc3nccnc3c2)S1 [AS605240] | γ-selective | –
2 | < 100 | 212 to 215 | COc1cccc2c1nc(C(F)F)n2-c1nc(N2CCOCC2)nc(N(C)C2CCN(S(=O)(=O)CCl)CC2)n1 [Example 21, N-{1-[(chloromethyl)sulfonyl]-4-piperidinyl}-4-[2-(difluoromethyl)-4-methoxy-1H-benzimidazol-1-yl]-N-methyl-6-(4-morpholinyl)-1,3,5-triazin-2-amine] | – | –
3 | < 100 | 252 to 254 | COc1cccc2c1nc(C(F)F)n2-c1nc(N2CCOCC2)nc(N2CCC(NC(=O)CCl)CC2)n1 [Example 22, 2-chloro-N-{1-[4-[2-(difluoromethyl)-4-methoxy-1H-benzimidazol-1-yl]-6-(4-morpholinyl)-1,3,5-triazin-2-yl]-4-piperidinyl}acetamide] | – | –
4 | < 100 | 206 to 208 | COc1cccc2c1nc(C(F)F)n2-c1nc(N2CCOCC2)nc(N2CCC(N(C)C(=O)CCl)CC2)n1 [Example 23, 2-chloro-N-{1-[4-[2-(difluoromethyl)-4-methoxy-1H-benzimidazol-1-yl]-6-(4-morpholinyl)-1,3,5-triazin-2-yl]-4-piperidinyl}-N-methylacetamide] | – | –
5 | < 100 | 270 to 275 | COc1cccc2c1nc(C(F)F)n2-c1nc(N2CCOCC2)nc(N2CC[C@@H](NC(=O)CCl)C2)n1 [Example 25, 2-chloro-N-{(3R)-1-[4-[2-(difluoromethyl)-4-methoxy-1H-benzimidazol-1-yl]-6-(4-morpholinyl)-1,3,5-triazin-2-yl]pyrrolidinyl}acetamide] | – | –
6 | < 100 | 231 to 233 | COc1cccc2c1nc(C(F)F)n2-c1nc(N2CCOCC2)nc(N2CC[C@@H](N(C)C(=O)CCl)C2)n1 [Example 27, 2-chloro-N-{(3R)-1-[4-[2-(difluoromethyl)-4-methoxy-1H-benzimidazol-1-yl]-6-(4-morpholinyl)-1,3,5-triazin-2-yl]pyrrolidinyl}-N-methylacetamide] | – | –
7 | < 100 | 230 to 232 | COc1cccc2c1nc(C(F)F)n2-c1nc(N2CCOCC2)nc(N2CC[C@H](N(C)C(=O)CCl)C2)n1 [Example 28, 2-chloro-N-{(3S)-1-[4-[2-(difluoromethyl)-4-methoxy-1H-benzimidazol-1-yl]-6-(4-morpholinyl)-1,3,5-triazin-2-yl]pyrrolidinyl}-N-methylacetamide] | – | –
8 | < 100 | 208 to 210 | COc1cccc2c1nc(C(F)F)n2-c1nc(N[C@@H]2CCN(C(=O)CCl)C2)nc(N2CCOCC2)n1 [Example 29, N-[(3R)-1-(chloroacetyl)pyrrolidinyl]-4-[2-(difluoromethyl)-4-methoxy-1H-benzimidazol-1-yl]-6-(4-morpholinyl)-1,3,5-triazin-2-amine] | – | –
9 | < 100 | 208 to 211 | COc1cccc2c1nc(C(F)F)n2-c1nc(N[C@H]2CCN(C(=O)CCl)C2)nc(N2CCOCC2)n1 [Example 30, N-[(3S)-1-(chloroacetyl)pyrrolidinyl]-4-[2-(difluoromethyl)-4-methoxy-1H-benzimidazol-1-yl]-6-(4-morpholinyl)-1,3,5-triazin-2-amine] | – | –
10 | < 100 | 219 to 221 | COc1cccc2c1nc(C(F)F)n2-c1nc(N2CCOCC2)nc(N(C)[C@@H]2CCN(C(=O)CCl)C2)n1 [Example 31, N-[(3R)-1-(chloroacetyl)pyrrolidinyl]-4-[2-(difluoromethyl)-4-methoxy-1H-benzimidazol-1-yl]-N-methyl-6-(4-morpholinyl)-1,3,5-triazin-2-amine] | – | –
11 | < 100 | 219 to 221 | COc1cccc2c1nc(C(F)F)n2-c1nc(N2CCOCC2)nc(N(C)[C@H]2CCN(C(=O)CCl)C2)n1 [Example 32, N-[(3S)-1-(chloroacetyl)pyrrolidinyl]-4-[2-(difluoromethyl)-4-methoxy-1H-benzimidazol-1-yl]-N-methyl-6-(4-morpholinyl)-1,3,5-triazin-2-amine] | – | –
12 | < 100 | 231 to 233 | COc1cccc2c1nc(C(F)F)n2-c1nc(N2CCOCC2)nc(N2CCC[C@@H](NC(=O)CCl)C2)n1 [Example 33] | – | –
13 | < 100 | 227 to 229 | COc1cccc2c1nc(C(F)F)n2-c1nc(N2CCOCC2)nc(N2CCC[C@H](NC(=O)CCl)C2)n1 [Example 34, 2-chloro-N-{(3S)-1-[4-[2-(difluoromethyl)-4-methoxy-1H-benzimidazol-1-yl]-6-(4-morpholinyl)-1,3,5-triazin-2-yl]piperidinyl}acetamide] | – | –
14 | < 100 | 201 to 203 | COc1cccc2c1nc(C(F)F)n2-c1nc(N2CCOCC2)nc(N2CCC[C@@H](N(C)C(=O)CCl)C2)n1 [Example 35, 2-chloro-N-{(3R)-1-[4-[2-(difluoromethyl)-4-methoxy-1H-benzimidazol-1-yl]-6-(4-morpholinyl)-1,3,5-triazin-2-yl]piperidinyl}-N-methylacetamide] | – | –
15 | < 100 | 190 to 192 | COc1cccc2c1nc(C(F)F)n2-c1nc(N[C@@H]2CCCN(C(=O)CCl)C2)nc(N2CCOCC2)n1 [Example 37] | – | –
16 | < 100 | 272 to 275 | COc1cccc2c1nc(C(F)F)n2-c1nc(N2CCOCC2)nc(N2CC(NC(=O)CCl)C2)n1 [Example 41, 2-chloro-N-{1-[4-[2-(difluoromethyl)-4-methoxy-1H-benzimidazol-1-yl]-6-(4-morpholinyl)-1,3,5-triazin-2-yl]-3-azetidinyl}acetamide] | – | –
17 | < 100 | 233 to 236 | COc1cccc2c1nc(C(F)F)n2-c1nc(N2CCOCC2)nc(N2CC(N(C)C(=O)CCl)C2)n1 [Example 42, 2-chloro-N-{1-[4-[2-(difluoromethyl)-4-methoxy-1H-benzimidazol-1-yl]-6-(4-morpholinyl)-1,3,5-triazin-2-yl]-3-azetidinyl}-N-methylacetamide] | – | –
18 | < 100 | 219 to 221 | COc1cccc2c1nc(C(F)F)n2-c1nc(NC2CN(C(=O)CCl)C2)nc(N2CCOCC2)n1 [Example 43, N-[1-(chloroacetyl)-3-azetidinyl]-4-[2-(difluoromethyl)-4-methoxy-1H-benzimidazol-1-yl]-6-(4-morpholinyl)-1,3,5-triazin-2-amine] | – | –
19 | < 100 | 220 to 222 | COc1cccc2c1nc(C(F)F)n2-c1nc(N2CCOCC2)nc(N(C)C2CN(C(=O)CCl)C2)n1 [Example 44, N-[1-(chloroacetyl)-3-azetidinyl]-4-[2-(difluoromethyl)-4-methoxy-1H-benzimidazol-1-yl]-N-methyl-6-(4-morpholinyl)-1,3,5-triazin-2-amine] | – | –
20 | < 100 | 170 to 172 | COc1cccc2c1nc(C(F)F)n2-c1nc(OC2CCN(C(=O)CCl)CC2)nc(N2CCOCC2)n1 [Example 45, 1-[4-{[1-(chloroacetyl)-4-piperidinyl]oxy}-6-(4-morpholinyl)-1,3,5-triazin-2-yl]-2-(difluoromethyl)-4-methoxy-1H-benzimidazole] | – | –
21 | < 100 | 250 to 253 | COc1cccc2c1nc(C(F)F)n2-c1nc(N2CCOCC2)c2cnn(C3CCN(S(=O)(=O)CCl)CC3)c2n1 [Example 48, 1-{1-[(chloromethyl)sulfonyl]-4-piperidinyl}-6-[2-(difluoromethyl)-4-methoxy-1H-benzimidazol-1-yl]-4-(4-morpholinyl)-1H-pyrazolo[3,4-d]pyrimidine] | – | –
22 | – | – | Cc1ccccc1-n1c(Cn2cnc3c(N)ncnc32)nc2cccc(C)c2c1=O [IC87114] | δ-selective | –
23 | – | – | Oc1cccc(-c2nc(N3CCOCC3)c3oc4ncccc4c3n2)c1 [PI103] | slightly α-selective | –
24 | – | – | C=CCN(/C=C1/C(=O)O[C@H](COC)[C@@]2(C)C1=C(O)C(=O)C1=C2[C@H](OC(C)=O)C[C@]2(C)C(=O)CC[C@@H]12)CC=C [PX-866] | not selective for individual PI3K isoforms | irreversible activity
25 | – | – | Cc1cc(C(C)Nc2ccccc2)c2nc(N3CCOCC3)cc(=O)n2c1 (centres unmarked) [TGX221] | β-selective | –
26 | – | – | FC(F)c1nc2ccccc2n1-c1nc(N2CCOCC2)nc(N2CCOCC2)n1 [ZSTK474] | non-selective | –
